According to patent publication US20190111016A1, “METHODS OF TREATING MUSCLE AND LIVER DISORDERS” (The Regents of the University of California, priority 2016, published 2019):
Structures can show the parent of a compound that is named as a salt.

What was measured:
MS patients [1] = experiment: mtDNA copy number (MT-TL1/B2M) by qPCR in PBMCs of MS patients before and after DMF treatment; type: in vivo, human; details: 3 months DMF treatment
Text: (§1) The local Ethics Committee of the University Federico II of Naples, approved the study. Patients were recruited from the Multiple Sclerosis Center of the Federico II University of Naples. All patients gave written informed consent before any activity linked to the study was started. Healthy controls were recruited at the clinic through students and site personnel. The study included 12 MS patients and 11 healthy individuals. Samples were obtained on the day before and after 3 months of continuous DMF treatment. Whole blood was collected in EDTA containing Leucosep® tubes (Greiner bio-one, Frickenhausen, Germany) and frozen at −80° C. until analysis. PBMCs were isolated from 30 mL of EDTA anticoagulated whole blood for RNA extraction.
(§2) cDNA was synthesized from mRNA with iScript cDNA Synthesis Kit (Bio-Rad Laboratories, Hercules, Calif., USA) per manufacturer's instruction in a C1000 Touch Thermal Cycler (Bio-Rad Laboratories, Hercules, Calif., USA). A SensiFAST SYBR No-ROX Kit (Bioline, Taunton, Mass., USA) was used to perform qPCR on the synthesized cDNA in a Roche Lightcycler 480 (Roche Diagnostics, Indianapolis, Ind., USA). The second derivative of the amplification curve was used to determine the cycle threshold, and the data were analyzed by a delta delta CT calculation.
DMF is a FDA approved drug, currently being used to treat adult patients with relapsing form of MS. […]

MS patients [2] = experiment: qPCR of mitochondrial complex subunit expression in PBMCs of MS patients before and after DMF treatment; type: in vivo, human
Text: as §1
(§3) Total RNA was extracted from human fibroblast cells and PBMCs from whole blood using RNeasy plus mini kit (Qiagen, Valencia, Calif.) and RIboPure RNA Purification Kit (ThermoFisher Scientific, Waltham, Mass., USA), respectively following manufacturers instruction. RNA quantity and quality was measured by a NanoDrop 2000c Spectrophotometer (Thermo Scientific, Waltham, Mass., USA).
as §2
DMF is a FDA approved drug, currently being used to treat adult patients with relapsing form of MS. To confirm whether DMF is contributing to mitochondrial biogenesis when given to human patients, we used qPCR to study mitochondrial DNA copy number and mitochondrial complex subunit expression in peripheral blood lymphocytes isolated from 11 MS patients at baseline and those same patients 3 months after DMF treatment, and 10 controls. We see significant increase in mitochondrial DNA copy number by 71% (p<0.0075, n=11) in MS patients' treated with DMF for 3 months compared to its own baseline [FIG. 4A].

HCAR2 = experiment: DMF treatment of HCAR2 siRNA knockdown human fibroblasts, qPCR; type: cell-based; details: HCAR2 siRNA 48 hours, then DMF 48 hours
Method: (§4) Fibroblast cells were seeded in six-well plates at 0.2×10^6 cells per well and transfected with negative control siRNA (cat. 12935300, Thermo-Fisher, Waltham, Mass., USA), pooled Nrf2 siRNA (cat. HSS107130, HSS181505, HSS181506, Thermo-Fisher, Waltham, Mass., USA) or pooled HCAR2 siRNA (cat. L-006688-02-0005, Dharmacon, Lafayette, Colo., USA) using Lipofectamine RNAiMAX following manufacturer's instruction. After a 48-hour incubation, subsequent drug treatment was conducted with the cells.
cDNA was synthesized from mRNA with iScript cDNA Synthesis Kit (Bio-Rad Laboratories, Hercules, Calif., USA) per manufacturer's instruction in a C1000 Touch Thermal Cycler (Bio-Rad Laboratories, Hercules, Calif., USA). […] The second derivative of the amplification curve was used to determine the cycle threshold, and the data were analyzed by a delta delta CT calculation.
(§5) DMF is known to mediate antioxidant cellular defense by Nrf2 activation, and it suppresses inflammatory signaling by binding to and activating HCAR2 (11, 15). To further understand the Nrf2 and HCAR2 dependent effects of DMF on mitochondrial biogenesis, we analyzed changes in mitochondrial proliferation in Nrf2 siRNA knockdown and HCAR2 siRNA knockdown fibroblasts.

Nrf2 = experiment: DMF treatment of Nrf2 siRNA knockdown human fibroblasts, qPCR; type: cell-based; details: then DMF 48 hours
Method: as §4, §2, §5

C57BL/6 wild-type mice [3] = experiment: qPCR of mitochondrial complex subunit expression in tissues of DMF-dosed mice; type: in vivo, mouse; details: 10 mg/kg DMF i.p. daily, two weeks
Method: (§6) C57BL/6 wild-type mice were housed in a vivarium maintained at 22° C.-24° C. and 40%-60% relative humidity with a 12-hour light/12-hour dark cycle. All experimental procedures were approved by the University of California Institutional Animal Care and Use Committee.
(§7) The stock dimethyl fumarate solution was made by dissolving 50 mg/ml of DMF into DMSO. Prior to injection, 0.5 mg/ml of working DMF solution (1:100 dilution) was made by diluting the stock solution into phosphate-buffered saline with 5% Tween-20 and 5% Polyethylene glycol (Sigma-Aldrich, St. Louis, Mo., USA). The mice were injected intraperitoneally every day for 14 days with 10 mg/kg of DMF.
(§8) The mice were euthanized with CO2 followed by cervical dislocation and tissues were immediately removed then flash frozen with liquid nitrogen. Samples were stored in −80° C. until utilized for experiments.
as §2
(§9) To understand whether the DMF-dependent mitochondrial biogenesis is only applicable to the human fibroblast cells, we examined the effects of DMF on wild type C57BL/6 mice. The mice were dosed with 10 mg/kg DMF daily, and skeletal muscle, cerebellum, liver, and heart tissues were collected after two weeks of treatment We utilized qPCR to analyze, mtDNA copy number as ratio of mt-Nd1 to Cftr and mitochondrial complex expression, in these tissues.

[4] = test system: healthy human fibroblast cell line AG09429; experiment: qPCR of TFAM and mitochondrial complex subunit mRNA in DMF-treated human fibroblasts; type: cell-based; details: for average induction of all the mitochondrial complexes (subunit mRNA) compared to vehicle / expression of mitochondrial biogenesis marker TFAM compared to vehicle control: 48 hours
Method: (§10) The healthy human fibroblast cell line AG09429 (Coriell Institute, Camden, N.J., USA) was maintained at 37° C. in a humidified atmosphere with 5% CO2. DMEM (Corning, Inc., Corning, N.Y., USA) supplemented with 10% fetal bovine serum (JR-Scientific, Woodland, Calif., USA), 1× Penicillin-Streptomycin Solution (Corning, Inc., Corning, N.Y., USA) was used as growth media. Media was changed every two days.
(§11) The human fibroblasts were plated in a 12-well format at 0.1×10^6 cells per well. The cells were incubated with 0.1% DMSO as vehicle control or 3-30 μM of dimethyl fumarate (Sigma-Aldrich, St. Louis, Mo., USA) dissolved in DMSO. Total RNA and DNA were extracted following a 48-hour incubation period.
as §3, §2
To elucidate whether increased mitochondrial proliferation affects the abundance of the ETC mitochondrial complexes, qPCR analysis was performed to quantify the mRNA expression of numerous complex subunits: complex 1 subunits MT-ND2 and MT-ND6, complex 2 subunits SDHA and SDHB, […], and complex 5 subunits ATP5B and MT-ATP6 [Table 1]. […] Taken together, human fibroblast cells increased mitochondrial biogenesis measured by mtDNA copy number, mitochondrial proliferator marker TFAM expression and mitochondrial complex expression.

C57BL/6 wild-type mice [5] = experiment: mtDNA copy number (mt-Nd1/Cftr) by qPCR in tissues of DMF-dosed mice; type: in vivo, mouse; details: 10 mg/kg DMF i.p. daily, two weeks
Method: as §6, §7, §8
(§12) Total DNA was extracted from human fibroblast and mouse tissues using DNeasy plus mini kit and DNeasy blood & tissue kit (Qiagen, Valencia, Calif., USA), respectively, following manufacturer's instruction. DNA was quantified by a NanoDrop 2000c Spectrophotometer (Thermo Scientific, Waltham, Mass., USA).
as §2, §9

[6] = test system: healthy human fibroblast cell line AG09429; experiment: mtDNA copy number (mtDNA/nDNA, MT-TL1/B2M) by qPCR in DMF-treated human fibroblasts; type: cell-based; details: 48 hours
Method: as §10, §11, §12, §2
Healthy human fibroblast cells were treated with 0.1% DMSO (vehicle), 3 μM, 10 μM or 30 μM DMF for 48 hours. Mitochondrial DNA (mtDNA) copy number was analyzed from total DNA isolates by measuring the ratio of mitochondrial to nuclear DNA (mtDNA/nDNA). Primers used to amplify mitochondrial DNA and nuclear DNA by qPCR were mitochondrially-encoded tRNA leucine 1 (MT-TL1) and Beta 2 microglobulin (B2M) respectively. […]

human fibroblasts = experiment: Oxygen consumption rate in DMF-treated fibroblasts by Seahorse XF Analyzer; type: cell-based; details: 48 hours
Method: Fibroblast cell lines were seeded at a density of 60,000 cells/well in 200 μL of culture medium in a 24-well seahorse tissue culture plate (Seahorse Biosciences, Billerica, Mass., USA). Following a 24-hour incubation, the media was replaced and incubated with 200 μL of 0.1% DMSO or 3 μM, 10 μM and 30 μM dimethyl fumarate in 0.1% DMSO. Prior to reading the oxygen consumption, the medium was changed to unbuffered DMEM without phenol red (Corning, Inc., Corning, N.Y., USA), 10% fetal bovine serum (JR-Scientific, Woodland, Calif., USA), […] glutamax, […] sodium pyruvate, 25 mM glucose (Invitrogen, Waltham, Mass., USA) and was adjusted to pH 7.4. Cells were pre-equilibrated for 20 min; oxygen consumption rate (OCR) and proton production rate (PPR) were recorded with the Seahorse XF-24 after sequential addition of oligomycin (1 ug/ml), FCCP (10 μM) and a combination of antimycin A (1 μM) and rotenone (1 μM) (Sigma-Aldrich, St. Louis, Mo., USA). Total protein in each well was measured and protein concentration was used to normalize the readings.
To elucidate the bioenergetic effects of DMF-dependent increases in mitochondrial copy number and mitochondrial complex expression in human fibroblasts, oxygen consumption rate (OCR) was measured. Human fibroblasts were treated with 0.1% DMSO, 3 μM, 10 μM or 30 μM DMF for 48 hours, and oxygen consumption rate (OCR) was sequentially measured in the presence of oligomycin (complex 5 inhibitor), FCCP (mitochondrial uncoupler), and rotenone/antimycin A (Complex 1/3 inhibitor) [FIG. 2A]. […] Consistent with the idea that DMF increases mitochondrial copy number and mitochondrial complex expression; the effects of DMF are nullified in the presence of oligomycin and rotenone/antimycin A, which inhibits the mitochondrial electron transport chain that is responsible for mitochondrial oxygen consumption.

[7] = MS patients, 3 months DMF treatment

## COC(=O)/C=C/C(=O)OC [DMF, dimethyl fumarate]
MS patients [1]
  mitochondrial DNA copy number compared to healthy control group: back to healthy control level
MS patients [1]; peripheral blood lymphocytes
  increase in mitochondrial DNA copy number compared to own baseline: 71%
MS patients [2]; MS patients following 3 months DMF treatment, relative to healthy individuals
  recovery in average mitochondrial gene expression (mt-ND6, mt-CYB, mt-CO2, mt-ATP6): 88%
MS patients [2]; [7]
  increase in mt-ATP6 (complex 5) expression normalized to own baseline: 3.74 fold
  increase in mt-CO2 (complex 4) expression normalized to own baseline: 2.34 fold
  increase in mt-CYB (complex 3) expression normalized to own baseline: 2.87 fold
  increase in mt-ND6 (complex 1) expression normalized to own baseline: 3.13 fold
HCAR2
  inducibility of NRF1, mtDNA copy number and mitochondrial complex 2-5 subunit gene expression, siHCAR2+DMF compared to siCTL+DMF: no significant difference
  inducibility of complex 1 subunit MT-ND2 by DMF when HCAR2 is knocked down: uninducible
Nrf2; Nrf2 siRNA 48 hours
  expression of Nrf2, NQO1 and mtDNA copy number, siNrf2+DMF compared to siNrf2 cells: significantly increases
  induction of TFAM and NRF1 in siNrf2+DMF: no significant induction
  mitochondrial complex expression in siNrf2+DMF cells (exception: complex 4): general reduction
Nrf2; control siRNA 48 hours
  Nrf2, NQO1, TFAM, NRF1 and mtDNA copy number, siCNT+DMF compared to siCNT: significant induction
C57BL/6 wild-type mice [3]; cerebellar tissue
  increase in mt-Atp6 (complex 5) expression: 1.82 fold
  increase in mt-Co1 (complex 4) expression: 1.92 fold
C57BL/6 wild-type mice [3]; liver or heart tissues
  induction of mitochondrial complexes: more minor
C57BL/6 wild-type mice [3]; skeletal muscle
  increase in mt-Atp6 (complex 5) expression: 1.77 fold
  increase in mt-Co1 (complex 4) expression: 2.38 fold
  increase in mt-Nd2 expression: 4.68 fold
[4]; 10 μM DMF
  average induction of all the mitochondrial complexes (subunit mRNA) compared to vehicle: 1.42 fold
  expression of mitochondrial biogenesis marker TFAM compared to vehicle control: increased
[4]; 30 μM DMF
  average induction of all the mitochondrial complexes (subunit mRNA) compared to vehicle: 2.65 fold
  expression of mitochondrial biogenesis marker TFAM compared to vehicle control: increased
[4]; DMF 48 hours
  expression of complex 5 subunits in response to DMF compared to other complex subunits: less increased
C57BL/6 wild-type mice [5]; cerebellum
  increase in mtDNA copy number: 1.29 fold
C57BL/6 wild-type mice [5]; heart
  change in mtDNA copy number: no significant change
C57BL/6 wild-type mice [5]; liver
  increase in mtDNA copy number: 1.34 fold
C57BL/6 wild-type mice [5]; skeletal muscle
  increase in mtDNA copy number: 1.45 fold
[6]; 3 μM DMF
  change in mtDNA copy number compared to vehicle control: no changes
[6]; 10 μM DMF
  increase in mtDNA copy number compared to vehicle control: 1.51 fold
[6]; 30 μM DMF
  increase in mtDNA copy number compared to vehicle control: 1.75 fold
Human fibroblasts; 3 μM DMF
  maximal OCR after FCCP injection, relative increase compared to vehicle control: 1.20 fold
Human fibroblasts; 10 μM DMF
  basal OCR, relative increase compared to vehicle control: 1.59 fold
  maximal OCR after FCCP injection, relative increase compared to vehicle control: 1.35 fold
Human fibroblasts; 30 μM DMF
  basal OCR, relative increase compared to vehicle control: 1.66 fold
  maximal OCR after FCCP injection, relative increase compared to vehicle control: 1.47 fold
Human fibroblasts; 3, 10, 30 μM DMF
  OCR in the presence of oligomycin and rotenone/antimycin A, DMF groups vs vehicle control: not significantly different
